According to patent US12083115B2, “Methods for treating neurological symptoms associated with lysosomal storage diseases” (Genzyme Corporation, priority 2020, dated 2024):
Where two headings read alike, the source gives them in different places.

How the values were obtained:
[1] = Study 1 Part 1: ascending single-dose PK in healthy men; format: in vivo, human; details: for AUC(0-t) / Cmax / Vd/F / half-life / Tmax / AUC(0-inf): male, human, plasma
Excerpt: Study 1 was a 2-part single-center trial in healthy adult male volunteers.
Part 1 of the study enrolled and randomized 55 healthy men (placebo, n=14; 2-, 5-, 15, 25-, 50, and 100-mg doses, n=6 each; 150-mg dose, n=5). Eight healthy men participated in Part 2. […]

[2] = tested on: ceramide, chitotriosidase (CHITO), GM3, GPNMB in CSF; assay: Clinical study in GD-3 patients: exploratory CSF biomarkers; format: in vivo, human
Procedure: During the study patients were evaluated for safety and tolerability, CSF and plasma biomarkers (glucosylceramide, GL-1; glucosylsphingosine, lyso-GL1), pharmacokinetics, markers for systemic disease (spleen and liver volume measured by magnetic resonance imaging (MRI), platelet count, hemoglobin levels), indicia of interstitial lung disease (high resolution pulmonary computed tomography (CT)), and horizontal saccadic eye movement. In addition, exploratory biomarkers were quantified in CSF of GD3 patients: ceramide (the precursor of GL-1), chitotriosidase (CHITO), GM3, and GPNMB. Symptoms of ataxia were measured using the SARA scale, neurological symptoms were measured using the trail making test, and functional MRI was used to assess neural connectivity in the brain.
In addition, exploratory biomarkers were quantified in CSF of GD3 patients: ceramide (the precursor of GL-1), chitotriosidase (CHITO; an enzyme known to be elevated in GD patients), GM3 (a glycosphingolipid marker known to be elevated in GD patients), and GPNMB (glycoprotein nonmetastatic melanoma protein B, reportedly a biomarker of neuropathic GD3).

[3] = tested on: GM3 expression in C32 human melanoma cells; assay: GM3 fluorescent-linked immunosorbent assay (FLISA), C32; format: cell-based; details: 48 hours
Excerpt: Inhibition of glucosylceramide synthase activity can be measured with one or more assays. A first assay is a microsomal assay that directly measures the conversion of ceramide to glucosylceramide by HPLC. Microsomes are a source of glucosylceramide synthase activity in the microsomal assay. A second assay is a cell based, phenotypic assay that monitors cell surface expression of the downstream lipid GM3 by antibody mediated immunofluorescence. Specific protocols are provided below.
This is a phenotypic assay that measures GM3 expression in B16 mouse melanoma or C32 human melanoma cells following treatment with test compounds. Cell surface GM3 expression is determined by antibody mediated fluorescence.
Compounds are diluted in media and plated in 384 well plates in DMSO. B16 and C32 cells are assayed at densities of 20,000 cells/ml and 62,500 cells/ml, respectively, per well. Each titration curve contains 10 points that are assayed in duplicate on each test run. The plates are incubated for 48 hours at 37° C., 5% CO2, and are then washed once with TBS. Anti-GM3 antibody is added to each well and the plates are then incubated for an additional one hour at room temperature. Plates are subsequently washed twice and incubated for an additional hour with the labeled secondary antibody. Following the final incubation, the plates are washed twice and the fluorescence at λex=D640/20 nm and λem=657 nm is detected on a fluorescent reader.
The results of the microsomal assays are expressed as “GCS IC50,” which represents the concentration of the compound causing 50% inhibition of glucosylceramide synthase activity. The results of the cell-based assays are expressed as “GM3 B16 IC50” or “GM3 C32 IC50” for the B16 assay and the C32 assay, respectively. These values represent the concentration of the compound causing 50% inhibition of GM3 expression on the cell surface.

## CC(C)(NC(=O)O[C@@H]1CN2CCC1CC2)c1csc(-c2ccc(F)cc2)n1 [Compound 2, (S)-quinuclidin-3-yl 2-(2-(4-fluorophenyl)thiazol-4-yl)propan-2-ylcarbamate]
[1]; oral, 25 mg, 25 mg single dose, N = 6, read-out: AUClast, Geometric mean (CV)
  AUC(0-t): 3240 ng·h/mL
[1]; oral, 25 mg, 25 mg single dose, N = 6, read-out: AUClast, Mean (SD)
  AUC(0-t): 3380 ng·h/mL
[1]; oral, 25 mg, 25 mg single dose, N = 6, read-out: Cmax, Geometric mean (CV)
  Cmax: 79.9 ng/mL
[1]; oral, 25 mg, 25 mg single dose, N = 6, read-out: Cmax, Mean (SD)
  Cmax: 84.4 ng/mL
[1]; oral, 25 mg, 25 mg single dose, N = 6, read-out: Vss/F, Geometric mean (CV)
  Vd/F: 228 L
[1]; oral, 25 mg, 25 mg single dose, N = 6, read-out: Vss/F, Mean (SD)
  Vd/F: 240 L
[1]; oral, 25 mg, 25 mg single dose, N = 6, read-out: t1/2, Geometric mean (CV) (converted)
  half-life: 29.8 h
[1]; oral, 25 mg, 25 mg single dose, N = 6, read-out: t1/2, Mean (SD) (converted)
  half-life: 30.2 h
[1]; oral, 50 mg single dose, N = 6, read-out: tmax, median
  Tmax: 4 h
[1]; oral, 50 mg, 50 mg single dose, N = 6, read-out: AUCinf, Geometric mean (CV)
  AUC(0-inf): 6800 ng·h/mL
[1]; oral, 50 mg, 50 mg single dose, N = 6, read-out: AUCinf, Mean (SD)
  AUC(0-inf): 7130 ng·h/mL
[1]; oral, 50 mg, 50 mg single dose, N = 6, read-out: AUClast, Geometric mean (CV)
  AUC(0-t): 6070 ng·h/mL
[1]; oral, 50 mg, 50 mg single dose, N = 6, read-out: AUClast, Mean (SD)
  AUC(0-t): 6310 ng·h/mL
[1]; oral, 50 mg, 50 mg single dose, N = 6, read-out: Cmax, Geometric mean (CV)
  Cmax: 173 ng/mL
[1]; oral, 50 mg, 50 mg single dose, N = 6, read-out: Cmax, Mean (SD)
  Cmax: 181 ng/mL
[1]; oral, 50 mg, 50 mg single dose, N = 6, read-out: Vss/F, Geometric mean (CV)
  Vd/F: 232 L
[1]; oral, 50 mg, 50 mg single dose, N = 6, read-out: Vss/F, Mean (SD)
  Vd/F: 239 L
[1]; oral, 50 mg, 50 mg single dose, N = 6, read-out: t1/2, Geometric mean (CV) (converted)
  half-life: 28.5 h
[1]; oral, 50 mg, 50 mg single dose, N = 6, read-out: t1/2, Mean (SD) (converted)
  half-life: 28.9 h
[1]; oral, 100 mg, 100 mg single dose, N = 6, read-out: AUCinf, Geometric mean (CV)
  AUC(0-inf): 14100 ng·h/mL
[1]; oral, 100 mg, 100 mg single dose, N = 6, read-out: AUCinf, Mean (SD)
  AUC(0-inf): 14400 ng·h/mL
[1]; oral, 100 mg, 100 mg single dose, N = 6, read-out: AUClast, Geometric mean (CV)
  AUC(0-t): 12800 ng·h/mL
[1]; oral, 100 mg, 100 mg single dose, N = 6, read-out: AUClast, Mean (SD)
  AUC(0-t): 13000 ng·h/mL
[1]; oral, 100 mg, 100 mg single dose, N = 6, read-out: Cmax, Geometric mean (CV)
  Cmax: 372 ng/mL
[1]; oral, 100 mg, 100 mg single dose, N = 6, read-out: Cmax, Mean (SD)
  Cmax: 374 ng/mL
[1]; oral, 100 mg, 100 mg single dose, N = 6, read-out: Vss/F, Geometric mean (CV)
  Vd/F: 212 L
[1]; oral, 100 mg, 100 mg single dose, N = 6, read-out: Vss/F, Mean (SD)
  Vd/F: 213 L
[1]; oral, 100 mg, 100 mg single dose, N = 6, read-out: t1/2, Geometric mean (CV) (converted)
  half-life: 27.6 h
[1]; oral, 100 mg, 100 mg single dose, N = 6, read-out: t1/2, Mean (SD) (converted)
  half-life: 27.8 h
[1]; oral, 150 mg single dose, N = 5, read-out: tmax, median
  Tmax: 4 h
[1]; oral, 150 mg, 150 mg single dose, N = 5, read-out: AUCinf, Geometric mean (CV)
  AUC(0-inf): 19900 ng·h/mL
[1]; oral, 150 mg, 150 mg single dose, N = 5, read-out: AUCinf, Mean (SD)
  AUC(0-inf): 20600 ng·h/mL
[1]; oral, 150 mg, 150 mg single dose, N = 5, read-out: AUClast, Geometric mean (CV)
  AUC(0-t): 18000 ng·h/mL
[1]; oral, 150 mg, 150 mg single dose, N = 5, read-out: AUClast, Mean (SD)
  AUC(0-t): 18600 ng·h/mL
[1]; oral, 150 mg, 150 mg single dose, N = 5, read-out: Cmax, Geometric mean (CV)
  Cmax: 520 ng/mL
[1]; oral, 150 mg, 150 mg single dose, N = 5, read-out: Cmax, Mean (SD)
  Cmax: 529 ng/mL
[1]; oral, 150 mg, 150 mg single dose, N = 5, read-out: Vss/F, Geometric mean (CV)
  Vd/F: 223 L
[1]; oral, 150 mg, 150 mg single dose, N = 5, read-out: Vss/F, Mean (SD)
  Vd/F: 228 L
[1]; oral, 150 mg, 150 mg single dose, N = 5, read-out: t1/2, Geometric mean (CV) (converted)
  half-life: 26.4 h
[1]; oral, 150 mg, 150 mg single dose, N = 5, read-out: t1/2, Mean (SD) (converted)
  half-life: 26.9 h
[1]; po, single oral doses of 2 to 150 mg, read-out: geometric mean t1/2 (converted)
  half-life: 28.9 h
[1]; single oral doses of 2 to 150 mg
  median time of Cmax: 3 to 5.5 h
[2]; After 52 weeks of treatment, N = 6
  CSF concentrations of ceramide, CHITO, or GPNMB: no significant changes
[2]; four patients with measurable GM3 at baseline, at 4 weeks, 26 weeks, and 52 weeks
  GM3 in CSF: undetectable
[3]
  IC50: 9.6 µM
